In the NIST ThermoML archive (doi:10.1016/j.tca.2006.10.025):

Key:
[1] = molar heat capacity at constant pressure; xn = mol fraction of the nth substance listed; details: 303.15 K, 101 kPa, Liquid, Small sample (50 mg) DSC
[2] = excess molar enthalpy (molar enthalpy of mixing); xn = mol fraction of the nth substance listed; details: 303.15 K, 101 kPa, Liquid, Flow calorimetry
[3] = molar heat capacity at constant pressure; details: 101.33 kPa, Liquid, Small sample (50 mg) DSC
[4] = 303.15 K; 101.33 kPa; Liquid; Vibrating tube method

CCCCCCCCCCO [decan-1-ol] + C[S+](C)[O-]
Details | excess molar enthalpy [kJ/mol] | molar heat capacity at constant pressure [J/K/mol]
[1], x2 = 0.0868 | – | 355.3
[1], x2 = 0.1641 | – | 338
[1], x2 = 0.2592 | – | 316.3
[1], x2 = 0.4231 | – | 282.4
[1], x2 = 0.5259 | – | 259.2
[1], x2 = 0.6431 | – | 235.2
[1], x2 = 0.7082 | – | 221.4
[1], x2 = 0.7997 | – | 201
[1], x2 = 0.8618 | – | 186.2
[1], x2 = 0.8908 | – | 179.2
[1], x2 = 0.9159 | – | 172.9
[1], x2 = 0.9596 | – | 162.1
[2], x2 = 0.1006 | 0.466 | –
[2], x2 = 0.1828 | 0.876 | –
[2], x2 = 0.2512 | 1.16 | –
[2], x2 = 0.3091 | 1.33 | –
[2], x2 = 0.4016 | 1.48 | –
[2], x2 = 0.4722 | 1.52 | –
[2], x2 = 0.573 | 1.51 | –
[2], x2 = 0.6414 | 1.48 | –
[2], x2 = 0.7286 | 1.37 | –
[2], x2 = 0.8011 | 1.26 | –
[2], x2 = 0.843 | 1.14 | –
[2], x2 = 0.8895 | 0.952 | –
[2], x2 = 0.9148 | 0.821 | –
[2], x2 = 0.9416 | 0.628 | –
[2], x2 = 0.9555 | 0.495 | –
[2], x2 = 0.9699 | 0.354 | –
[2], x2 = 0.9847 | 0.191 | –

C[S+](C)[O-] [dimethyl sulfoxide] + CO
Details | excess molar enthalpy [kJ/mol] | molar heat capacity at constant pressure [J/K/mol]
[1], x1 = 0.0308 | – | 84
[1], x1 = 0.061 | – | 85.8
[1], x1 = 0.1103 | – | 88.3
[1], x1 = 0.197 | – | 93.9
[1], x1 = 0.2818 | – | 97.8
[1], x1 = 0.3571 | – | 102.3
[1], x1 = 0.4676 | – | 109.7
[1], x1 = 0.5886 | – | 116.1
[1], x1 = 0.6833 | – | 124.6
[1], x1 = 0.8398 | – | 137.5
[1], x1 = 0.9068 | – | 142.5
[1], x1 = 0.923 | – | 144.6
[2], x1 = 0.0176 | 0.008 | –
[2], x1 = 0.0233 | 0.009 | –
[2], x1 = 0.0455 | 0.003 | –
[2], x1 = 0.0667 | -0.011 | –
[2], x1 = 0.087 | -0.032 | –
[2], x1 = 0.1251 | -0.081 | –
[2], x1 = 0.1601 | -0.133 | –
[2], x1 = 0.2223 | -0.227 | –
[2], x1 = 0.276 | -0.298 | –
[2], x1 = 0.3639 | -0.38 | –
[2], x1 = 0.4619 | -0.428 | –
[2], x1 = 0.5336 | -0.433 | –
[2], x1 = 0.6318 | -0.412 | –
[2], x1 = 0.6959 | -0.373 | –
[2], x1 = 0.7744 | -0.317 | –
[2], x1 = 0.8207 | -0.253 | –
[2], x1 = 0.8728 | -0.185 | –
[2], x1 = 0.9321 | -0.097 | –

C[S+](C)[O-] [dimethyl sulfoxide]
[3]
Details | molar heat capacity at constant pressure [J/K/mol]
288.15 K | 147.8
293.15 K | 149.4
298.15 K | 151.5
303.15 K | 152.4
308.15 K | 153.4
313.15 K | 155.4
318.15 K | 155.6
323.15 K | 156.6

Details | mass density [kg/m3]
[4] | 1090.45

CCCCCCO [hexan-1-ol] + C[S+](C)[O-]
Details | excess molar enthalpy [kJ/mol] | molar heat capacity at constant pressure [J/K/mol]
[1], x2 = 0.1102 | – | 239.9
[1], x2 = 0.1949 | – | 231.7
[1], x2 = 0.2888 | – | 222.5
[1], x2 = 0.3759 | – | 216.5
[1], x2 = 0.4388 | – | 211.5
[1], x2 = 0.535 | – | 199.2
[1], x2 = 0.5365 | – | 199.4
[1], x2 = 0.6311 | – | 190.4
[1], x2 = 0.7339 | – | 181.8
[1], x2 = 0.8062 | – | 171
[1], x2 = 0.8704 | – | 164.7
[1], x2 = 0.9359 | – | 158.8
[2], x2 = 0.0682 | 0.361 | –
[2], x2 = 0.1277 | 0.64 | –
[2], x2 = 0.1801 | 0.847 | –
[2], x2 = 0.2265 | 1.01 | –
[2], x2 = 0.3053 | 1.2 | –
[2], x2 = 0.3694 | 1.3 | –
[2], x2 = 0.4677 | 1.36 | –
[2], x2 = 0.5394 | 1.36 | –
[2], x2 = 0.6374 | 1.28 | –
[2], x2 = 0.7251 | 1.17 | –
[2], x2 = 0.7786 | 1.04 | –
[2], x2 = 0.8406 | 0.865 | –
[2], x2 = 0.8755 | 0.746 | –
[2], x2 = 0.9134 | 0.56 | –
[2], x2 = 0.9336 | 0.454 | –
[2], x2 = 0.9547 | 0.331 | –
[2], x2 = 0.9768 | 0.181 | –

CCO [ethanol]
[3]
Details | molar heat capacity at constant pressure [J/K/mol]
288.15 K | 108.8
293.15 K | 111
298.15 K | 113.5
303.15 K | 115.7
308.15 K | 118.6
313.15 K | 121.6
318.15 K | 125.1
323.15 K | 128.2

Details | mass density [kg/m3]
[4] | 780.79

CO [methanol]
[3]
Details | molar heat capacity at constant pressure [J/K/mol]
288.15 K | 78.1
293.15 K | 79.3
298.15 K | 81
303.15 K | 82.2
308.15 K | 83.4
313.15 K | 85.6
318.15 K | 87.5
323.15 K | 89.5

Details | mass density [kg/m3]
[4] | 781.81

C[S+](C)[O-] [dimethyl sulfoxide] + CCO
Details | excess molar enthalpy [kJ/mol] | molar heat capacity at constant pressure [J/K/mol]
[1], x1 = 0.0356 | – | 117.9
[1], x1 = 0.0504 | – | 119.1
[1], x1 = 0.1092 | – | 121.7
[1], x1 = 0.1636 | – | 121.8
[1], x1 = 0.2647 | – | 124.6
[1], x1 = 0.3441 | – | 126.3
[1], x1 = 0.4469 | – | 129.9
[1], x1 = 0.557 | – | 133
[1], x1 = 0.6498 | – | 136.8
[1], x1 = 0.7615 | – | 141
[1], x1 = 0.8872 | – | 146.6
[1], x1 = 0.9408 | – | 148
[2], x1 = 0.0332 | 0.123 | –
[2], x1 = 0.0642 | 0.215 | –
[2], x1 = 0.0933 | 0.281 | –
[2], x1 = 0.1207 | 0.34 | –
[2], x1 = 0.1707 | 0.409 | –
[2], x1 = 0.2154 | 0.455 | –
[2], x1 = 0.2917 | 0.502 | –
[2], x1 = 0.3543 | 0.509 | –
[2], x1 = 0.4516 | 0.489 | –
[2], x1 = 0.5527 | 0.442 | –
[2], x1 = 0.6222 | 0.397 | –
[2], x1 = 0.7119 | 0.322 | –
[2], x1 = 0.7671 | 0.273 | –
[2], x1 = 0.8317 | 0.202 | –
[2], x1 = 0.8682 | 0.157 | –
[2], x1 = 0.9081 | 0.118 | –
[2], x1 = 0.9518 | 0.062 | –
